Experiments:
CAKI-1 [1] = test: inhibition of the growth of renal cancer(CAKI-1) cell line; assay type: functional; details: Homo sapiens
SNB-19 [2] = test: Inhibition of the growth of CNS cancer(SNB-19) cell line at 0.01 uM; assay type: functional; details: Homo sapiens
[3] = target: T1, Bifunctional dihydrofolate reductase-thymidylate synthase (Toxoplasma gondii, UniProt Q07422)
T1 sequence (Q07422 whole entry): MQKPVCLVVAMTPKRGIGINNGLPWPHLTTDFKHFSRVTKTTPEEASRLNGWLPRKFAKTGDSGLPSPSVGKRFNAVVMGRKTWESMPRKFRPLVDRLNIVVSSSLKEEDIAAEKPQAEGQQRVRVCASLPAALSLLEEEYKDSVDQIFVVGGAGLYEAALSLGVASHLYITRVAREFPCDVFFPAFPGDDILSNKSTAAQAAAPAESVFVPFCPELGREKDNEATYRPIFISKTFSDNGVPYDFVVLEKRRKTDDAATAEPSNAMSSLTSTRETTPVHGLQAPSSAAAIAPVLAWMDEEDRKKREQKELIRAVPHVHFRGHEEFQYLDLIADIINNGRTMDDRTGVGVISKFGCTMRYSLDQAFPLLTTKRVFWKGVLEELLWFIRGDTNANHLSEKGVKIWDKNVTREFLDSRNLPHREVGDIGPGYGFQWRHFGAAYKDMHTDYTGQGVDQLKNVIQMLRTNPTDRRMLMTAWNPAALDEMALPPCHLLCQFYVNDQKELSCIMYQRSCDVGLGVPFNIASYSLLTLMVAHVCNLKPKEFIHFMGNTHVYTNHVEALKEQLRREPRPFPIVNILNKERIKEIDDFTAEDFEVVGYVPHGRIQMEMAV
Description: Inhibitory activity against dihydrofolate reductase (DHFR) from Toxoplasma gondii

Dihydrofolate reductase [4] = target: T2, Dihydrofolate reductase (Pneumocystis carinii, UniProt P16184)
T2 sequence (P16184 whole entry): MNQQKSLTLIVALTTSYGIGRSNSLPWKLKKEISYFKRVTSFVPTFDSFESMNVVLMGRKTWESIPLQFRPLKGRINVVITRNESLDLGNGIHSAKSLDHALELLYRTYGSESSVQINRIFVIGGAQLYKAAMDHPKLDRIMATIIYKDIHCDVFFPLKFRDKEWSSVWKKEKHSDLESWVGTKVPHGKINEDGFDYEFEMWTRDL
Description: Inhibitory activity against dihydrofolate reductase (DHFR) from Pneumocystis carinii

NCI-H522 [5] = test: Inhibition of the growth of non-small-cell lung cancer (NCI-H522) cell line at 0.01 uM; assay type: functional; details: Homo sapiens
M14 [6] = test: inhibition of the growth of melanoma cancer (M14) cell line; assay type: functional; details: Homo sapiens
RPMI-8226 [7] = test: Inhibition of the growth of leukemia (RPMI-8226) cell line AT 0.01 uM; assay type: functional; details: Homo sapiens
HCT-116 [8] = test: Inhibition of the growth of colon cancer(HCT116) cell line at 0.01 uM; assay type: functional; details: Homo sapiens
IGROV-1 [9] = test: Inhibition of the growth of ovarian cancer(IGROVI) cell line at 0.01 uM; assay type: functional; details: Homo sapiens
MDA-MB-435 [10] = test: Inhibition of the growth of breast cancer (MDA-MB-435) cell line; assay type: functional; details: Homo sapiens
NCI/ADR-RES [11] = test: inhibition of the growth of breast cancer (MCF7/ADR-RES) cell line; assay type: functional; details: Homo sapiens
DU-145 [12] = test: inhibition of the growth of prostate cancer(DU-145) cell line; assay type: functional; details: Homo sapiens
SNB-19 [13] = test: inhibition of the growth of CNS cancer(SNB-19) cell line; assay type: functional; details: Homo sapiens
NCI-H460 [14] = test: inhibition of the growth of non-small-cell lung cancer (NCI-H460) cell line; assay type: functional; details: Homo sapiens
NCI-H322M [15] = test: inhibition of the growth of non-small-cell lung cancer (NCI-H322M) cell line; assay type: functional; details: Homo sapiens
SK-MEL-5 [16] = test: Inhibition of the growth of melanoma cancer (SK-MEL-5) cell line at 0.01 uM; assay type: functional; details: Homo sapiens
SR [17] = test: Inhibition of the growth of leukemia(SR) cell line; assay type: functional; details: Homo sapiens
SK-MEL-5 [18] = test: inhibition of the growth of melanoma cancer (SK-MEL-5) cell line; assay type: functional; details: Homo sapiens
MOLT-4 [19] = test: Inhibition of the growth of leukemia (MOLT-4) cell line; assay type: functional; details: Homo sapiens
DU-145 [20] = test: Inhibition of the growth of prostate cancer(DU-145) cell line at 0.01 uM; assay type: functional; details: Homo sapiens
UO-31 [21] = test: Inhibition of the growth of renal cancer(UO-31) cell line at 0.01 uM; assay type: functional; details: Homo sapiens
M14 [22] = test: Inhibition of the growth of melanoma cancer (M14) cell line at 0.01 uM; assay type: functional; details: Homo sapiens
HCT-15 [23] = test: inhibition of the growth of colon cancer(HCT-15) cell line; assay type: functional; details: Homo sapiens
UO-31 [24] = test: inhibition of the growth of renal cancer(UO-31) cell line; assay type: functional; details: Homo sapiens
CAKI-1 [25] = test: Inhibition of the growth of renal cancer(CAKI-1) cell line at 0.01 uM; assay type: functional; details: Homo sapiens
NCI-H23 [26] = test: inhibition of the growth of non-small-cell lung cancer (NCI-H23) cell line; assay type: functional; details: Homo sapiens
SF-539 [27] = test: inhibition of the growth of CNS cancer(SF-539) cell line; assay type: functional; details: Homo sapiens
OVCAR-8 [28] = test: inhibition of the growth of ovarian cancer(OVCAR-8) cell line; assay type: functional; details: Homo sapiens
HCT-15 [29] = test: Inhibition of the growth of colon cancer(HCT-15) cell line at 0.01 uM; assay type: functional; details: Homo sapiens
HCT-116 [30] = test: Inhibition of the growth of colon cancer(HCT116) cell line; assay type: functional; details: Homo sapiens
MOLT-4 [31] = test: Inhibition of the growth of leukemia (MOLT-4) cell line at 0.01 uM; assay type: functional; details: Homo sapiens
IGROV-1 [32] = test: inhibition of the growth of ovarian cancer(IGROVI) cell line; assay type: functional; details: Homo sapiens
SF-295 [33] = test: Inhibition of the growth of CNS cancer(SF-295) cell line at 0.01 uM; assay type: functional; details: Homo sapiens
786-0 [34] = test: Inhibition of the growth of renal cancer(786-0) cell line at 0.01 uM; assay type: functional; details: Homo sapiens
NCI-H522 [35] = test: Inhibition of the growth of non-small-cell lung cancer (NCI-H522) cell line; assay type: functional; details: Homo sapiens
A549 [36] = test: Inhibition of the growth of non-small-cell lung cancer (A549/ATCC) cell line; assay type: functional; details: Homo sapiens
KM12 [37] = test: Inhibition of the growth of colon cancer(KM-12) cell line at 0.01 uM; assay type: functional; details: Homo sapiens
RPMI-8226 [38] = test: Inhibition of the growth of leukemia (RPMI-8226) cell line; assay type: functional; details: Homo sapiens
MDA-N [39] = test: Inhibition of the growth of breast cancer(MDA-N) cell line at 0.01 uM; assay type: functional; details: Homo sapiens
MCF7 [40] = test: Inhibition of the growth of breast cancer (MCF-7) cell line at 0.01 uM; assay type: functional; details: Homo sapiens
NCI-H23 [41] = test: inhibition of the growth of non-small-cell lung cancer (NCI-H23) cell line at 0.01 uM; assay type: functional; details: Homo sapiens
SR [42] = test: Inhibition of the growth of leukemia(SR) cell line at 0.01 uM; assay type: functional; details: Homo sapiens
KM12 [43] = test: inhibition of the growth of colon cancer(KM-12) cell line; assay type: functional; details: Homo sapiens
NCI-H322M [44] = test: Inhibition of the growth of non-small-cell lung cancer (NCI-H322M) cell line at 0.01 uM; assay type: functional; details: Homo sapiens
786-0 [45] = test: inhibition of the growth of renal cancer(786-0) cell line; assay type: functional; details: Homo sapiens
A549 [46] = test: Inhibition of the growth of non-small-cell lung cancer (A549/ATCC) cell line at 0.01 uM; assay type: functional; details: Homo sapiens
SF-295 [47] = test: inhibition of the growth of CNS cancer(SF-295) cell line; assay type: functional; details: Homo sapiens
SF-268 [48] = test: inhibition of the growth of CNS cancer(SF-268) cell line; assay type: functional; details: Homo sapiens
MDA-N [49] = test: inhibition of the growth of breast cancer(MDA-N) cell line; assay type: functional; details: Homo sapiens
NCI/ADR-RES [50] = test: Inhibition of the growth of breast cancer (MCF7/ADR-RES) cell line at 0.01 uM; assay type: functional; details: Homo sapiens
OVCAR-8 [51] = test: Inhibition of the growth of ovarian cancer(OVCAR-8) cell line at 0.01 uM; assay type: functional; details: Homo sapiens
MCF7 [52] = test: inhibition of the growth of breast cancer (MCF-7) cell line; assay type: functional; details: Homo sapiens
SF-268 [53] = test: Inhibition of the growth of CNS cancer(SF-268) cell line at 0.01 uM; assay type: functional; details: Homo sapiens
NCI-H460 [54] = test: Inhibition of the growth of non-small-cell lung cancer (NCI-H460) cell line at 0.01 uM; assay type: functional; details: Homo sapiens
Dihydrofolate reductase [55] = target: T3, Dihydrofolate reductase (Rattus norvegicus, UniProt Q920D2)
T3 sequence (Q920D2 whole entry): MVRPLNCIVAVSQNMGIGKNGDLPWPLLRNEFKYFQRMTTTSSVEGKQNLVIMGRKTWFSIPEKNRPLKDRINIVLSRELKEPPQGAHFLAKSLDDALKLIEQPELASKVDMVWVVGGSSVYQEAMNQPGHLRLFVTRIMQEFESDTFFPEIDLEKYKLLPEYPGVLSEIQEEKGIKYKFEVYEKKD
Description: Inhibitory activity against dihydrofolate reductase (DHFR) from rat liver

MDA-MB-435 [56] = test: Inhibition of the growth of breast cancer (MDA-MB-435) cell line at 0.01 uM; assay type: functional; details: Homo sapiens
SF-539 [57] = test: Inhibition of the growth of CNS cancer(SF-539) cell line at 0.01 uM; assay type: functional; details: Homo sapiens

SMILES: COc1ccc(N(C)c2ccc3nc(N)nc(N)c3n2)cc1OC
- GI50 (CAKI-1 [1]): < 10 nM
- inhibition at 0.01 µM (SNB-19 [2]): 90%
- IC50 [3]: 0.88 nM
- IC50 (Dihydrofolate reductase [4]): 2.3 nM
- inhibition at 0.01 µM (NCI-H522 [5]): 59%
- GI50 (M14 [6]): < 10 nM
- inhibition at 0.01 µM (RPMI-8226 [7]): 69%
- inhibition at 0.01 µM (HCT-116 [8]): 83%
- inhibition at 0.01 µM (IGROV-1 [9]): 65%
- GI50 (MDA-MB-435 [10]): < 10 nM
- GI50 (NCI/ADR-RES [11]): < 10 nM
- GI50 (DU-145 [12]): < 10 nM
- GI50 (SNB-19 [13]): < 10 nM
- GI50 (NCI-H460 [14]): < 10 nM
- GI50 (NCI-H322M [15]): < 10 nM
- inhibition at 0.01 µM (SK-MEL-5 [16]): 83%
- GI50 (SR [17]): < 10 nM
- GI50 (SK-MEL-5 [18]): < 10 nM
- GI50 (MOLT-4 [19]): < 10 nM
- inhibition at 0.01 µM (DU-145 [20]): 57%
- inhibition at 0.01 µM (UO-31 [21]): 100%
- inhibition at 0.01 µM (M14 [22]): 59%
- GI50 (HCT-15 [23]): < 10 nM
- GI50 (UO-31 [24]): < 10 nM
- inhibition at 0.01 µM (CAKI-1 [25]): 81%
- GI50 (NCI-H23 [26]): < 10 nM
- GI50 (SF-539 [27]): < 10 nM
- GI50 (OVCAR-8 [28]): < 10 nM
- inhibition at 0.01 µM (HCT-15 [29]): 75%
- GI50 (HCT-116 [30]): < 10 nM
- inhibition at 0.01 µM (MOLT-4 [31]): 57%
- GI50 (IGROV-1 [32]): < 10 nM
- inhibition at 0.01 µM (SF-295 [33]): 68%
- inhibition at 0.01 µM (786-0 [34]): 53%
- GI50 (NCI-H522 [35]): < 10 nM
- GI50 (A549 [36]): < 10 nM
- inhibition at 0.01 µM (KM12 [37]): 56%
- GI50 (RPMI-8226 [38]): < 10 nM
- inhibition at 0.01 µM (MDA-N [39]): 63%
- inhibition at 0.01 µM (MCF7 [40]): 60%
- inhibition at 0.01 µM (NCI-H23 [41]): 82%
- inhibition at 0.01 µM (SR [42]): 69%
- GI50 (KM12 [43]): < 10 nM
- inhibition at 0.01 µM (NCI-H322M [44]): 53%
- GI50 (786-0 [45]): < 10 nM
- inhibition at 0.01 µM (A549 [46]): 70%
- GI50 (SF-295 [47]): < 10 nM
- GI50 (SF-268 [48]): < 10 nM
- GI50 (MDA-N [49]): < 10 nM
- inhibition at 0.01 µM (NCI/ADR-RES [50]): 84%
- inhibition at 0.01 µM (OVCAR-8 [51]): 76%
- GI50 (MCF7 [52]): < 10 nM
- inhibition at 0.01 µM (SF-268 [53]): 52%
- inhibition at 0.01 µM (NCI-H460 [54]): 83%
- IC50 (Dihydrofolate reductase [55]): 0.4 nM
- inhibition at 0.01 µM (MDA-MB-435 [56]): 72%
- inhibition at 0.01 µM (SF-539 [57]): 67%

From ChEMBL document CHEMBL1131172 (J Med Chem, 1998)
